What follows are compounds tested against T1, Beta-secretase 1 (Homo sapiens, UniProt P56817).
T1 sequence (P56817 whole entry): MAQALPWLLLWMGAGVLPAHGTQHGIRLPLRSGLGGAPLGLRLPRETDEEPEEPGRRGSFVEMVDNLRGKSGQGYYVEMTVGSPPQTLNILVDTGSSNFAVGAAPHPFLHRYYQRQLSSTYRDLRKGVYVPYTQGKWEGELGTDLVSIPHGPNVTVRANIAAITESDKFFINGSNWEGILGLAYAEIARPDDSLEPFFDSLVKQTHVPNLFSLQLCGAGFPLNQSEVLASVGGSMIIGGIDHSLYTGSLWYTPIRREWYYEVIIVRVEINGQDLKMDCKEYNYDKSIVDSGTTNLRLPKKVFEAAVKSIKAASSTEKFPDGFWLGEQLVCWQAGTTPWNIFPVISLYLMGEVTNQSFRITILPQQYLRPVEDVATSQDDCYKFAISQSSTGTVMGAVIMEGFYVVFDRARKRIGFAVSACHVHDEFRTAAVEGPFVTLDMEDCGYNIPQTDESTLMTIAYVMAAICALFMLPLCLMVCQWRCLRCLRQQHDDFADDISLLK

Row | Compound | IC50 [nM]
1 | CCCN(CCC)C(=O)c1cc(C)cc(C(=O)N[C@@H](Cc2cc(F)cc(F)c2)[C@H](O)[C@H]2C[C@@H](OCCOC)CCN2)c1 | 4
2 | CCCN(CCC)C(=O)c1cc(C)cc(C(=O)N[C@@H](Cc2cc(F)cc(F)c2)[C@H](O)[C@H]2C[C@@H](OCC3CC3)CCN2)c1 | 6
3 | CCCN(CCC)C(=O)c1cc(C)cc(C(=O)N[C@@H](Cc2cc(F)cc(F)c2)[C@H](O)[C@H]2CCN2)c1 | 770
4 | CCCN(CCC)C(=O)c1cc(C)cc(C(=O)N[C@@H](Cc2cc(F)cc(F)c2)[C@H](O)[C@H]2C[C@@H](Cc3cccc(OC)c3)CCN2)c1 | 330
5 | CCCN(CCC)C(=O)c1cc(C)cc(C(=O)N[C@@H](Cc2cc(F)cc(F)c2)[C@H](O)[C@H]2C[C@@H](CCc3ccccc3)CCN2)c1 | 191
6 | CCCN(CCC)C(=O)c1cc(C)cc(C(=O)N[C@@H](Cc2cc(F)cc(F)c2)[C@H](O)[C@H]2C[C@@H](Cc3ccc(OC)cc3)CCN2)c1 | 440
7 | CCCN(CCC)C(=O)c1cc(C)cc(C(=O)N[C@@H](Cc2cc(F)cc(F)c2)[C@H](O)[C@H]2C[C@@H](Cc3ccccc3OC)CCN2)c1 | 1350
8 | CCCN(CCC)C(=O)c1cc(C)cc(C(=O)N[C@@H](Cc2cc(F)cc(F)c2)[C@H](O)[C@H]2CCCN2)c1 | 65

More lines, now with the values ahead:

Row | IC50 [nM] | Compound
9 | 120 | CCCN(CCC)C(=O)c1cc(C)cc(C(=O)N[C@@H](Cc2cc(F)cc(F)c2)[C@H](O)[C@H]2C[C@@H](OC(C)C)CCN2)c1
10 | 630 | CCCN(CCC)C(=O)c1cc(C)cc(C(=O)N[C@@H](Cc2cc(F)cc(F)c2)[C@H](O)[C@H]2C[C@@H](CC3CCCCC3)CCN2)c1
11 | 187 | CCCN(CCC)C(=O)c1cc(C)cc(C(=O)N[C@@H](Cc2cc(F)cc(F)c2)[C@H](O)[C@H]2C[C@@H](OC)CN2)c1
12 | 7 | CCCCO[C@H]1CCN[C@@H]([C@@H](O)[C@H](Cc2cc(F)cc(F)c2)NC(=O)c2cc(C)cc(C(=O)N(CCC)CCC)c2)C1
13 | 2000 | CCCN(CCC)C(=O)c1cc(C)cc(C(=O)N[C@@H](Cc2cc(F)cc(F)c2)[C@H](O)[C@H]2C[C@@H](OC(C)=O)CCN2)c1
14 | 610 | CCCN(CCC)C(=O)c1cc(C)cc(C(=O)N[C@@H](Cc2cc(F)cc(F)c2)[C@H](O)[C@H]2C[C@@H](C3CCCCC3)CCN2)c1
15 | 89 | CCCN(CCC)C(=O)c1cc(C)cc(C(=O)N[C@@H](Cc2cc(F)cc(F)c2)[C@H](O)[C@H]2C[C@@H](O)CN2)c1
16 | 12 | CCCN(CCC)C(=O)c1cc(C)cc(C(=O)N[C@@H](Cc2cc(F)cc(F)c2)[C@H](O)[C@H]2C[C@@H](OCC3CCCCC3)CCN2)c1
17 | 70 | CCC[C@H]1CCN[C@@H]([C@@H](O)[C@H](Cc2cc(F)cc(F)c2)NC(=O)c2cc(C)cc(C(=O)N(CCC)CCC)c2)C1
18 | 26 | CCCN(CCC)C(=O)c1cc(C)cc(C(=O)N[C@@H](Cc2cc(F)cc(F)c2)[C@H](O)[C@H]2C[C@@H](OCCN(C)C)CCN2)c1

Target: T1, Beta-secretase 1
Remark: another data set of the same source

Row | Compound | IC50 [nM]
19 | CCCN(CCC)C(=O)c1cc(C)cc(C(=O)N[C@@H](Cc2cc(F)cc(F)c2)[C@H](O)[C@H]2C[C@@H](OCCOC)CCN2)c1 | 110
20 | CCCN(CCC)C(=O)c1cc(C)cc(C(=O)N[C@@H](Cc2cc(F)cc(F)c2)[C@H](O)[C@H]2C[C@@H](OCC3CC3)CCN2)c1 | 121
21 | CCCN(CCC)C(=O)c1cc(C)cc(C(=O)N[C@@H](Cc2cc(F)cc(F)c2)[C@H](O)[C@H]2CCN2)c1 | 2800
22 | CCCN(CCC)C(=O)c1cc(C)cc(C(=O)N[C@@H](Cc2cc(F)cc(F)c2)[C@H](O)[C@H]2C[C@@H](CCc3ccccc3)CCN2)c1 | 1850
23 | CCCN(CCC)C(=O)c1cc(C)cc(C(=O)N[C@@H](Cc2cc(F)cc(F)c2)[C@H](O)[C@H]2C[C@@H](Cc3ccc(OC)cc3)CCN2)c1 | 2000
24 | CCCN(CCC)C(=O)c1cc(C)cc(C(=O)N[C@@H](Cc2cc(F)cc(F)c2)[C@H](O)[C@H]2CCCN2)c1 | 330

Now from value to compound:

Row | IC50 [nM] | Compound
25 | 858 | CCCN(CCC)C(=O)c1cc(C)cc(C(=O)N[C@@H](Cc2cc(F)cc(F)c2)[C@H](O)[C@H]2C[C@@H](OC(C)C)CCN2)c1
26 | 2000 | CCCN(CCC)C(=O)c1cc(C)cc(C(=O)N[C@@H](Cc2cc(F)cc(F)c2)[C@H](O)[C@H]2C[C@@H](CC3CCCCC3)CCN2)c1
27 | 780 | CCCN(CCC)C(=O)c1cc(C)cc(C(=O)N[C@@H](Cc2cc(F)cc(F)c2)[C@H](O)[C@H]2C[C@@H](OC)CN2)c1
28 | 160 | CCCCO[C@H]1CCN[C@@H]([C@@H](O)[C@H](Cc2cc(F)cc(F)c2)NC(=O)c2cc(C)cc(C(=O)N(CCC)CCC)c2)C1
29 | 3000 | CCCN(CCC)C(=O)c1cc(C)cc(C(=O)N[C@@H](Cc2cc(F)cc(F)c2)[C@H](O)[C@H]2C[C@@H](OC(C)=O)CCN2)c1
30 | 4200 | CCCN(CCC)C(=O)c1cc(C)cc(C(=O)N[C@@H](Cc2cc(F)cc(F)c2)[C@H](O)[C@H]2C[C@@H](C3CCCCC3)CCN2)c1
31 | 1450 | CCCN(CCC)C(=O)c1cc(C)cc(C(=O)N[C@@H](Cc2cc(F)cc(F)c2)[C@H](O)[C@H]2C[C@@H](O)CN2)c1
32 | 567 | CCCN(CCC)C(=O)c1cc(C)cc(C(=O)N[C@@H](Cc2cc(F)cc(F)c2)[C@H](O)[C@H]2C[C@@H](OCC3CCCCC3)CCN2)c1
33 | 1200 | CCC[C@H]1CCN[C@@H]([C@@H](O)[C@H](Cc2cc(F)cc(F)c2)NC(=O)c2cc(C)cc(C(=O)N(CCC)CCC)c2)C1
34 | 482 | CCCN(CCC)C(=O)c1cc(C)cc(C(=O)N[C@@H](Cc2cc(F)cc(F)c2)[C@H](O)[C@H]2C[C@@H](OCCN(C)C)CCN2)c1
